Laboratory results from patent US8134015B2, “Compound inhibiting in vivo phosphorous transport and medicine containing the same” (Kyowa Hakko Kirin Co., Ltd., priority 2003, dated 2012).

Molecular target: T1, rat NaPi-2b (Rattus norvegicus, UniProt Q9JJ09)
T1 construct: expressed in transfected cells; host or cells: Xenopus oocytes injected with cRNA
T1 sequence (Q9JJ09 1-695): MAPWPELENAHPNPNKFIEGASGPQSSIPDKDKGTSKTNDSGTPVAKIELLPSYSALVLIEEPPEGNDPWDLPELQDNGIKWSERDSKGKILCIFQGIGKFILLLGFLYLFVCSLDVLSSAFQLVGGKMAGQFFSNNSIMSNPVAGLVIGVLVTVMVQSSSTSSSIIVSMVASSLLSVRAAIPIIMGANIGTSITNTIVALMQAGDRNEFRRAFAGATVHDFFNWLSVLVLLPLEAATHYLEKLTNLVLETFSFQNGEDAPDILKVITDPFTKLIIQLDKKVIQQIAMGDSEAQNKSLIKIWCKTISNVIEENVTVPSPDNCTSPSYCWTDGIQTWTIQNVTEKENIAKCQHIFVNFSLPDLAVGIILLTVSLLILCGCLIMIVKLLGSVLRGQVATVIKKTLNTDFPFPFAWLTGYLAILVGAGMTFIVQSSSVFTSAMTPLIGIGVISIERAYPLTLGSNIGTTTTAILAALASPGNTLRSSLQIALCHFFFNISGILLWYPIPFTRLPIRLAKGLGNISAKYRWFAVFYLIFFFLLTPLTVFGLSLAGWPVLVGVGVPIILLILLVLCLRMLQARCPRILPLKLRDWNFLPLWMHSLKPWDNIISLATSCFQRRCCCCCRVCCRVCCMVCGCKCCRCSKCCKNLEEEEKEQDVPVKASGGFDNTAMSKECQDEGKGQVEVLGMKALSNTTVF
Assay: Sodium-dependent phosphate uptake of Xenopus oocytes which expressed NaPi-2b (32P)
Format: cell-based
Conditions: for IC50: Xenopus oocytes expressing rat NaPi-2b, 32P radioactive phosphorus, read-out: IC50 (phosphate uptake inhibitory activity)
In short: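 Rat small-intestine NaPi-2b cRNA injected into Xenopus oocytes, expressed for 2 days. Sodium-dependent phosphate uptake measured with 32P; % inhibition at 300 and 100 μM taken from the same inhibition curve.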

| IC50 | inhibition at 300 µM (phosphate uptake, oocytes expressing rat NaPi-2b, 300 μM, determined from inhibition curve) | Structure (SMILES) |
| --- | --- | --- |
| 99.4 µM |  | Cc1cccc(/C=N/NC(=O)c2cc(Cl)ccc2NC(=O)c2cccc(CSCCS(=O)(=O)O)c2)c1 [Compound 692, 2-{3-[4-Chloro-2-(3-methyl-benzylidene-hydrazinocarbonyl)-phenylcarbamoyl]-benzylsulfanyl}-ethanesulfonic acid] |
| 12.4 µM |  | CCN1CC(NCc2ccc(-c3nc4ccc(Br)cc4c(=O)n3/N=C/c3ccc(Cl)c(C(F)(F)F)c3)cc2)CN1CC [Compound 753, 6-Bromo-3-[(4-chloro-3-trifluoromethyl-benzylidene)-amino]-2-{4-[(1,2-diethyl-pyrazolidin-4-ylamino)-methyl]-phenyl}-3H-quinazolin-4-one] |
| < 1 µM |  | Cc1cccc(/C=N/NC(=O)c2cc(Br)ccc2NC(=O)c2ccc(CSCCO)cc2)c1 [Compound 263, N-[4-Bromo-2-(3-methyl-benzylidene-hydrazinocarbonyl)-phenyl]-4-(2-hydroxy-ethylsulfanylmethyl)-benzamide] |
| 0.99 µM |  | CCN(CC)CCN(C)Cc1cccc(C(=O)Nc2ccc(OC)cc2C(=O)N/N=C/c2ccc(Cl)c(C(F)(F)F)c2)c1 [Compound 1023, N-[2-(4-Chloro-3-trifluoromethyl-benzylidene-hydrazinocarbonyl)-4-methoxy-phenyl]-3-{[(2-diethylamino-ethyl)-methyl-amino]-methyl}-benzamide] |
| 11.2 µM |  | COc1cccc(/C=N/NC(=O)c2cc(Br)ccc2NC(=O)c2ccc(CNCCCN(C)c3ccccc3)cc2)c1 [Compound 763, N-[4-Bromo-2-(3-methoxy-benzylidene-hydrazinocarbonyl)-phenyl]-4-{[3-(methyl-phenyl-amino)-propylamino]-methyl}-benzamide] |
| 4.76 µM |  | Cc1ccc(/C=N/NC(=O)c2c(NC(=O)c3cccc(CN(CC(C)O)CC(C)O)c3)sc3c2CCC3)cc1 (stereo not drawn) [Compound 805, 3-{[Bis-(2-hydroxy-propyl)-amino]-methyl}-N-[3-(4-methyl-benzylidene-hydrazinocarbonyl)-5,6-dihydro-4H-cyclopenta[b]-thiophen-2-yl]-benzamide] |
| 1.86 µM |  | Cc1ccc(/C=N/NC(=O)c2ccccc2NC(=O)c2ccccn2)cc1C [Compound 507, Pyridin-2-carboxylic acid [2-(3,4-dimethyl-benzylidene-hydrazinocarbonyl)-phenyl]-amide] |
| 3.37 µM |  | COc1ccc(C(=O)Nc2ccccc2C(=O)N/N=C/c2cccc(C)c2)cc1 [Compound 49, 4-Methoxy-N-[2-(3-methyl-benzylidene-hydrazinocarbonyl)-phenyl]-benzamide] |
| 2.74 µM |  | O=C(Nc1ccc(Br)cc1C(=O)N/N=C/c1cccc(F)c1)c1cccnc1 [Compound 172, N-[4-Bromo-2-(3-fluoro-benzylidene-hydrazinocarbonyl)-phenyl]-nicotinamide] |
| 9.38 µM |  | COc1cccc(/C=N/NC(=O)c2cc(Cl)ccc2NC(=O)c2ccc(CN(C)CCO)cc2)c1 [Compound 418, N-[4-Chloro-2-(3-methoxy-benzylidene-hydrazinocarbonyl)-phenyl]-4-{[(2-hydroxy-ethyl)-methyl-amino]-methyl}-benzamide] |
| 20.3 µM |  | O=C(Nc1ccc(Cl)cc1C(=O)N/N=C/c1ccc(F)cc1)c1ccncc1 [Compound 190, N-[4-Chloro-2-(4-fluoro-benzylidene-hydrazinocarbonyl)-phenyl]-isonicotinamide] |
| 5.12 µM |  | O=C(Nc1ccc(Br)cc1C(=O)N/N=C/c1ccc(Cl)c(C(F)(F)F)c1)c1ccncc1 [Compound 171, N-[4-Bromo-2-(4-chloro-3-trifluoromethyl-benzylidene-hydrazinocarbonyl)-phenyl]-isonicotinamide] |
| 0.31 µM |  | CCN(CC)CCN(C)Cc1cccc(C(=O)Nc2ccc(Cl)cc2C(=O)N/N=C/c2cccc(OC)c2)c1 [Compound 385, N-[4-Chloro-2-(3-methoxy-benzylidene-hydrazinocarbonyl)-phenyl]-3-{[(2-diethylamino-ethyl)-methyl-amino]-methyl}-benzamide] |
| 0.39 µM |  | O=C(Nc1ccc(Br)cc1C(=O)N/N=C/c1ccc(Cl)c(C(F)(F)F)c1)c1cccc(CSc2ccncc2)c1 [Compound 200, N-[4-Bromo-2-(4-chloro-3-trifluoromethyl-benzylidene-hydrazinocarbonyl)-phenyl]-3-(pyridin-4-ylsulfanylmethyl)-benzamide] |
| 5.62 µM |  | Cc1ccc(/C=N/n2c(-c3cccc(CSc4nc[nH]n4)c3)nc3sc4c(c3c2=O)CCCC4)cc1 [Compound 647, 3-[(4-Methyl-benzylidene-)-amino]-2-[3-(1H-[1,2,4]triazol-3-ylsulfanylmethyl)-phenyl]-5,6,7,8-tetrahydro-3H-benzo[4,5]thieno[2,3-d]pyrimidin-4-one] |
| 8.55 µM |  | CN(CCO)Cc1cccc(C(=O)Nc2ccc(Cl)cc2C(=O)N/N=C/c2ccc(F)cc2)c1 [Compound 395, N-[4-Chloro-2-(4-fluoro-benzylidene-hydrazinocarbonyl)-phenyl]-3-{[(2-hydroxy-ethyl)-methyl-amino]-methyl}-benzamide] |
| 1.42 µM |  | Cc1ccc(/C=N/NC(=O)c2cc(Cl)ccc2NC(=O)c2cccc(CSc3nc[nH]n3)c2)cc1 [Compound 392, N-[4-Chloro-2-(4-methyl-benzylidene-hydrazinocarbonyl)-phenyl]-3-(1H-[1,2,4]triazol-3-ylsulfanylmethyl)-benzamide] |
| 2.55 µM |  | O=C(O)CCSCc1cccc(C(=O)Nc2ccc(N3CCCCC3)cc2C(=O)N/N=C/c2ccc(F)cc2)c1 [Compound 888, 3-{3-[2-(4-Fluoro-benzylidene-hydrazinocarbonyl)-4-piperidin-1-yl-phenylcarbamoyl]-benzylsulfanyl}-propionic acid] |
| 10.1 µM |  | CC(O)CN(Cc1cccc(C(=O)Nc2sccc2C(=O)N/N=C/c2cccc(F)c2)c1)CC(C)O (stereo not drawn) [Compound 673, 3-{[Bis-(2-hydroxy-propyl)-amino]-methyl}-N-[3-(3-fluoro-benzylidene-hydrazinocarbonyl)-thiophen-2-yl]-benzamide] |
| 30.5 µM |  | CCN(CC)CCN(C)Cc1cccc(C(=O)Nc2sccc2C(=O)N/N=C/c2cccc(F)c2)c1 [Compound 667, 3-{[(2-Diethylamino-ethyl)-methyl-amino]-methyl}-N-[3-(3-fluoro-benzylidene-hydrazinocarbonyl)-thiophen-2-yl]-benzamide] |
| < 3 µM |  | CN(CCO)Cc1ccc(C(=O)Nc2ccc(Cl)cc2C(=O)N/N=C/c2ccc(F)cc2)cc1 [Compound 413, N-[4-Chloro-2-(4-fluoro-benzylidene-hydrazinocarbonyl)-phenyl]-4-{[(2-hydroxy-ethyl)-methyl-amino]-methyl}-benzamide] |
|  | 59.1% | CC(C)(C)c1cccc(/C=N/NC(=O)c2ccccc2NC(=O)c2ccccc2F)c1O [Compound 239, N-[2-(3-Tert-butyl-2-hydroxy-benzylidene-hydrazinocarbonyl)-phenyl]-2-fluoro-benzamide] |
| 1.09 µM |  | COc1ccc(C(=O)Nc2scc(C)c2C(=O)N/N=C/c2ccc(Cl)c(C(F)(F)F)c2)cc1OC [Compound 522, N-[3-(4-Chloro-3-trifluoromethyl-benzylidene-hydrazinocarbonyl)-4-methyl-thiophen-2-yl]-3,4-dimethoxy-benzamide] |
| 5.65 µM |  | O=C(Nc1ccccc1C(=O)N/N=C/c1cccc(F)c1)c1cccc(F)c1 [Compound 81, 3-Fluoro-N-[2-(3-fluoro-benzylidene-hydrazinocarbonyl)-phenyl]-benzamide] |
